Like-named read-outs stand apart in the source and are kept apart here.
Experiments:
LCK tyrosine kinase = LCK tyrosine kinase (Homo sapiens, UniProt P06239, C224D/P223M); experiment: LCK spectrophotometric assay; assay type: biochemical; details: Table 1; compound concentration 1 µM; read-out: Lck-P* (% inhibition)
Method: The spectrophotometric assay was carried out as described above for VEGF-R2, except for the following changes in concentration: LCK = 60 nM, MgCl2 = 0 mM, poly(E4Y1) = 20 mM.

[1] = target: unphosphorylated VEGF-R2Δ50 (Homo sapiens, UniProt P35968, DEL940-989/E990V); experiment: biochemical; details: read-out: FLVK ** (% inhibition)
human FGF-R1 = human FGF-R1 (Homo sapiens, UniProt P11362, C488A/C584S/L457V); experiment: FGF-R spectrophotometric assay; assay type: biochemical; details: read-out: FGF-P* (% inhibition)
Method: The spectrophotometric assay was carried out as described above for VEGF-R2, except for the following changes in concentration: FGF-R = 50 nM, ATP = 2 mM, and poly(E4Y1) =15 mM.

[2] = system: human umbilical vein endothelial cells (HUVEC); experiment: HUVEC proliferation assay (VEGF-stimulated, MTT); assay type: cell-based; details: Homo sapiens, HUVEC, Table 1; + albumin; read-out: HUVEC + albumin IC50
Method: This assay determines the ability of a test compound to inhibit the growth factor-stimulated proliferation of human umbilical vein endothelial cells ("HUVEC"). HUVEC cells (passage 3-4, Clonetics, Corp.) were thawed into EGM2 culture medium (Clonetics Corp) in T75 flasks. Fresh EGM2 medium was added to the flasks 24 hours later. Four or five days later, cells were exposed to another culture medium (F12K medium supplemented with 10% fetal bovine serum (FBS), 60 µg/mL endothelial cell growth supplement (ECGS), and 0.1 mg/mL heparin). Exponentially-growing HUVEC cells were used in experiments thereafter. Ten to twelve thousand HUVEC cells were plated in 96-well dishes in 100 µl of rich, culture medium (described above). The cells were allowed to attach for 24 hours in this medium. The medium was then removed by aspiration and 105 µl of starvation media (F12K+1% FBS) was added to each well. After 24 hours, 15 µl of test agent dissolved in 1% DMSO in starvation medium or this vehicle alone was added into each treatment well; the final DMSO concentration was 0.1%. One hour later, 30 µl of VEGF (30 ng/mL) in starvation media was added to all wells except those containing untreated controls; the final VEGF concentration was 6 ng/mL. Cellular proliferation was quantified 72 hours later by MTT dye reduction, at which time cells were exposed for 4 hours MTT (Promega Corp.).

[3] = Table 1, compound concentration 1 µM

Chain of LCK tyrosine kinase (P06239 223-509 P223M/C224D): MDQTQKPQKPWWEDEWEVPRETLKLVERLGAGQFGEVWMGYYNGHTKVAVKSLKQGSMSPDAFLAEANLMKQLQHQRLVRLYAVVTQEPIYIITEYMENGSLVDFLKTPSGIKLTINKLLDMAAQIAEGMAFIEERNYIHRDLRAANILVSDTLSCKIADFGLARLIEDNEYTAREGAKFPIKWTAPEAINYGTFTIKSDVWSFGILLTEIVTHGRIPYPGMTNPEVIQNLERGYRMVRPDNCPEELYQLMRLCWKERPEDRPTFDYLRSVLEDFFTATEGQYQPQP
Chain of human FGF-R1 (P11362 456-766 L457V/C488A/C584S): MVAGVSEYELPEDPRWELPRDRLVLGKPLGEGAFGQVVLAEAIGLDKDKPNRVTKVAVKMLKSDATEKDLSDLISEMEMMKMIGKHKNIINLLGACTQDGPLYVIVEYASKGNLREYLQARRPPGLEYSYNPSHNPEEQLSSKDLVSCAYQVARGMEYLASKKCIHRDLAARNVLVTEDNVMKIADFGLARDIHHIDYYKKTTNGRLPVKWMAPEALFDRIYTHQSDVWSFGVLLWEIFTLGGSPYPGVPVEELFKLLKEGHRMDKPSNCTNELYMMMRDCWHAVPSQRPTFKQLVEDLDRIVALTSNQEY
Chain of unphosphorylated VEGF-R2Δ50 (P35968 with tags, fused parts or gaps DEL940-989/E990V limits assumed): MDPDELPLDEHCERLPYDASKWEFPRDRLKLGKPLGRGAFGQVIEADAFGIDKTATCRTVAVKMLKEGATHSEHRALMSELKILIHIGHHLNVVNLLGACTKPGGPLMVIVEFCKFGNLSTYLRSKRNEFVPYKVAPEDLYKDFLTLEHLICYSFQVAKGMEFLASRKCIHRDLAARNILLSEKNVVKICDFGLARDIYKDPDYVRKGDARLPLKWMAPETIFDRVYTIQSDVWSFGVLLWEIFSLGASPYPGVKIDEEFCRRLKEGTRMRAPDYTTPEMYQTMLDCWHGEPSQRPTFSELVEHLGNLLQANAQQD

Cc1ccccc1C(=O)NNC(=O)c1ccccc1Sc1ccc2c(/C=C/c3ccccn3)n[nH]c2c1 [Reference Example 35(q), 6-[2-((2-Methylphenylhydrazido)carbonyl)phenylsulfanyl]-3-E-[2-(pyridin-2-yl)ethenyl]-1H-indazole]
inhibition at 1 µM (LCK tyrosine kinase): 42% | inhibition at 0.05 µM [1]: 92% | inhibition at 1 µM (human FGF-R1; [3]): 51% | IC50 [2]: 18 nM

Cc1cc(C(=O)Nc2cc(C(=O)c3ccc4c(/C=C/c5ccccn5)n[nH]c4c3)ccc2C)n(C)n1 [Reference Example 41(hh), 6-[3-((1,3-Dimethyl-1H-pyrazol-5-yl)carboxamido)-4-methylbenzoyl]-3-E-[2-(pyridin-2-yl)ethenyl]-1H-indazole]
inhibition at 1 µM (LCK tyrosine kinase): 13% | inhibition at 0.05 µM [1]: 98% | inhibition at 1 µM (human FGF-R1; [3]): 74% | IC50 [2]: 3.9 nM

O=C(c1cccc(NC(=O)c2cc(Cl)ccn2)c1)c1ccc2c(/C=C/c3ccccn3)n[nH]c2c1 [Reference Example 41(z), 6-[3-((4-chloropyridin-2-yl)carboxamido)benzoyl]-3-E-[2-(pyridin-2-yl)ethenyl]-1H-indazole]
inhibition at 1 µM (LCK tyrosine kinase): 54% | inhibition at 0.05 µM [1]: 100% | inhibition at 1 µM (human FGF-R1; [3]): 74% | IC50 [2]: 7.5 nM

CC(C)NC(=O)c1ccccc1Sc1ccc2c(/C=C/c3ccccn3)n[nH]c2c1 [Reference Example 35(b), 6-[2-(i-Propylcarbamoyl)phenylsulfanyl]-3-E-[2-(pyridin-2-yl)ethenyl]-1H-indazole]
inhibition at 1 µM (LCK tyrosine kinase): 12% | inhibition at 0.05 µM [1]: 49% | inhibition at 1 µM (human FGF-R1; [3]): 59% | IC50 [2]: 35 nM

Cc1ccc(C(=O)c2ccc3c(/C=C/c4ccccn4)n[nH]c3c2)cc1N [Reference Example 40(b), 6-(3-Amino-4-methyl-benzoyl)-3-E-[2-(pyridin-2-yl)ethenyl]-1H-indazole]
inhibition at 1 µM (LCK tyrosine kinase): 32% | inhibition at 0.05 µM [1]: 89% | inhibition at 1 µM (human FGF-R1; [3]): 92%

CNC(=O)c1cccc(F)c1Sc1ccc2c(/C=C/c3ccccn3)n[nH]c2c1 [Reference Example 37(d), 6-[6-Fluoro-2-(methylcarbamoyl)phenylsulfanyl]-3-E-[2-(pyridin-2-yl)ethenyl]-1H-indazole]
inhibition at 1 µM (LCK tyrosine kinase): 10% | inhibition at 0.05 µM [1]: 26% | inhibition at 1 µM (human FGF-R1; [3]): 38%

Cc1cc(C)c(C(=O)c2ccc3c(/C=C/c4ccccn4)n[nH]c3c2)cc1N [Reference Example 40(c), 6-(5-Amino-2,4-dimethyl-benzoyl)-3-E-[2-(pyridin-2-yl)ethenyl]-1H-indazole]
inhibition at 1 µM (LCK tyrosine kinase): 28% | inhibition at 0.05 µM [1]: 24% | inhibition at 1 µM (human FGF-R1; [3]): 59%

O=C(N/N=C/C(F)(F)F)c1ccccc1Sc1ccc2c(/C=C/c3ccccn3)n[nH]c2c1 [Reference Example 36(c)]
inhibition at 1 µM (LCK tyrosine kinase): 28% | inhibition at 0.05 µM [1]: 89% | inhibition at 1 µM (human FGF-R1; [3]): 60%

CN(O)C(=O)c1ccccc1Sc1ccc2c(/C=C/c3ccccn3)n[nH]c2c1 [Reference Example 35(o), 6-[2-(N-Hydroxy-N-methylcarbamoyl)phenylsufanyl]-3-E-[2-(pyridin-2-yl)ethenyl]-1H-indazole]
inhibition at 1 µM (LCK tyrosine kinase): 17% | inhibition at 0.05 µM [1]: 39% | inhibition at 1 µM (human FGF-R1; [3]): 44%

O=C(Nc1cccc(C(=O)c2ccc3c(/C=C/c4ccccn4)n[nH]c3c2)c1)Oc1ccccc1 [Reference Example 41(cc), 6-[3-(phenoxyamido)benzoyl]-3-E-[2-(pyridin-2-yl)ethenyl]-1H-indazole]
inhibition at 1 µM (LCK tyrosine kinase): 41% | inhibition at 0.05 µM [1]: 97% | inhibition at 1 µM (human FGF-R1): 95%

O=C(NCc1ccncc1)c1ccccc1Sc1ccc2c(/C=C/c3ccccn3)n[nH]c2c1 [Reference Example 35(p), 6-[2-((Pyrid-4-yl)methylcarbamoyl)phenylsulfanyl]-3-E-[2-(pyridin-2-yl)ethenyl]-1H-indazole]
inhibition at 1 µM (LCK tyrosine kinase): 5% | inhibition at 0.05 µM [1]: 62% | inhibition at 1 µM (human FGF-R1; [3]): 11%

Source: patent EP1614683B1, “Indazole compounds and pharmaceutical compositions for inhibiting protein kinases, and methods for their use” (priority 1999, dated 2001)
